From patent US20210317092A1 (BAYER PHARMA AKTIENGESELLSCHAFT, priority 2016, published 2021)
Like-named read-outs stand apart in the source and are kept apart here.

Biological target: T1, human Bradykinin B1 receptor (Homo sapiens, UniProt P46663)
T1 construct: host or cells: CHO-K1
T1 sequence (P46663 1-353): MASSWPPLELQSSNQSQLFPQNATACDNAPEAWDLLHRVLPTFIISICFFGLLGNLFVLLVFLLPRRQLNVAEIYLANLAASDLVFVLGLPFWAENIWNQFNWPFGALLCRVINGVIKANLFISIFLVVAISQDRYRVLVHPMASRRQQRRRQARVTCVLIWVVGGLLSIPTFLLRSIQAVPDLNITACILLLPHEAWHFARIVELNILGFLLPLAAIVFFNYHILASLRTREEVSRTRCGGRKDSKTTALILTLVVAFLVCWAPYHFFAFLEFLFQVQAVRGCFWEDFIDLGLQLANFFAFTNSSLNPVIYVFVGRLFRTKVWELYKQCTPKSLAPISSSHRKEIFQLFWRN
Assay: Calcium flux Assay (FLIPR) with recombinant CHO-K1 cells expressing human Bradykinin B1 receptor, in presence (hB1 IC50) or absence (hB1 free IC50) of 0.1% BSA
Type: cell-based

[1] = in absence of 0.1% BSA, read-out: hB1 free IC50
[2] = in presence of 0.1% BSA, read-out: hB1 IC50

Row | SMILES | IC50 [1] | IC50 [2]
1 | CCOc1ccc(-c2ccc(NC(=O)C3(c4ccccc4Cl)CC3)cc2-c2nnn[nH]2)cn1 [Example 93, 1-(2-chlorophenyl)-N-[4-(6-ethoxypyridin-3-yl)-3-(1H-tetrazol-5-yl)phenyl] cyclopropane-carboxamide] | 39.3 nM | 37.1 nM
2 | CCOc1ccc(-c2ccc(NC(=O)C3(c4cccc(CC)c4)CC3)cc2-c2nnn[nH]2)cn1 [Example 95, N-[4-(6-ethoxypyridin-3-yl)-3-(1H-tetrazol-5-yl)phenyl]-1-(3-ethylphenyl) cyclopropane-carboxamide] | 10.4 nM | 14.5 nM
3 | CCOc1ccc(-c2ccc(NC(=O)C3(c4cc(F)cc(OC)c4)CC3)cc2-c2nnn[nH]2)cn1 [Example 103, N-[4-(6-ethoxypyridin-3-yl)-3-(1H-tetrazol-5-yl)phenyl]-1-(3-fluoro-5-methoxyphenyl) cyclopropane-carboxamide] | – | 28.1 nM
4 | CCOc1ccc(-c2ccc(NC(=O)C3(c4cc(OC)ccc4F)CC3)cc2-c2nnn[nH]2)cn1 [Example 104, N-[4-(6-ethoxypyridin-3-yl)-3-(1H-tetrazol-5-yl)phenyl]-1-(2-fluoro-5-methoxyphenyl) cyclopropane-carboxamide] | – | 46.4 nM
5 | CCOc1ccc(-c2ccc(NC(=O)C3(c4cccc(F)c4Cl)CC3)cc2-c2nnn[nH]2)cn1 [Example 106, 1-(2-chloro-3-fluorophenyl)-N-[4-(6-ethoxypyridin-3-yl)-3-(1H-tetrazol-5-yl)phenyl] cyclopropane-carboxamide] | – | 56 nM
6 | CCOc1ccc(-c2ccc(NC(=O)C3(c4cccc(Cl)n4)CC3)cc2-c2nnn[nH]2)cn1 [Example 107, 1-(6-chloropyridin-2-yl)-N-[4-(6-ethoxypyridin-3-yl)-3-(1H-tetrazol-5-yl)phenyl] cyclopropane-carboxamide] | 177 nM | 134 nM
7 | CCOc1ccc(-c2ccc(NC(=O)C3(c4ccc(Cl)nc4)CC3)cc2-c2nnn[nH]2)cn1 [Example 108, 1-(6-chloropyridin-3-yl)-N-[4-(6-ethoxypyridin-3-yl)-3-(1H-tetrazol-5-yl)phenyl] cyclopropane-carboxamide] | – | 338 nM
8 | CCOc1ccc(-c2ccc(NC(=O)C3(C4CCC(C)(C)CC4)CC3)cc2-c2nnn[nH]2)cn1 [Example 109, 1-(4,4-dimethylcyclo-hexyl)-N-[4-(6-ethoxypyridin-3-yl)-3-(1H-tetrazol-5-yl)phenyl] cyclopropane-carboxamide] | – | 12.2 nM
9 | COc1ccc(-c2ccc(NC(=O)C3(c4ccc(C)cc4)CC3)cc2-c2nnn[nH]2)cc1 [Example 115, N-[4′-methoxy-2-(1H-tetrazol-5-yl)biphenyl-4-yl]-1-(4-methylphenyl) cyclopropane-carboxamide] | – | 169 nM
10 | COc1ccc(-c2ccc(NC(=O)C3(c4cccc(Cl)c4)CC3)cc2-c2nnn[nH]2)cc1C [Example 116, 1-(3-chlorophenyl)-N-[4′-methoxy-3′-methyl-2-(1H-tetrazol-5-yl)biphenyl-4-yl]cyclopropane carboxamide] | – | 177 nM
11 | COc1ccc(-c2ccc(NC(=O)C3(c4cccc(Cl)c4)CC3)cc2-c2nnn[nH]2)cc1Cl [Example 117, N-[3′-chloro-4′-methoxy-2-(1H-tetrazol-5-yl)biphenyl-4-yl]-1-(3-chlorophenyl) cyclopropane-carboxamide] | – | 448 nM
12 | COc1ccc(-c2ccc(NC(=O)C3(c4cccc(Cl)c4)CC3)cc2-c2nnn[nH]2)c(C)c1 [Example 118, 1-(3-chlorophenyl)-N-[4′-methoxy-2′-methyl-2-(1H-tetrazol-5-yl)biphenyl-4-yl]cyclopropane carboxamide] | – | 1820 nM
13 | COCc1ccc(-c2ccc(NC(=O)C3(c4cccc(Cl)c4)CC3)cc2-c2nnn[nH]2)cc1C [Example 124, 1-(3-chlorophenyl)-N-[4′-(methoxymethyl)-3′-methyl-2-(1H-tetrazol-5-yl)biphenyl-4-yl]cyclopropane carboxamide] | – | 38.3 nM
14 | O=C(Nc1ccc(-c2cc(F)cc(C(F)(F)F)c2)c(-c2nnn[nH]2)c1)C1(c2ccc(C(F)(F)F)cc2F)CC1 [Example 129, N-[3′-fluoro-2-(1H-tetrazol-5-yl)-5′-(trifluoromethyl)biphenyl-4-yl]-1-[2-fluoro-4-(trifluoromethyl)phenyl] cyclopropane-carboxamide] | 77.2 nM | –
15 | O=C(Nc1ccc(-c2cc(F)cc(C(F)(F)F)c2)c(-c2nnn[nH]2)c1)C1(c2cccc(Cl)c2)CC1 [Example 130, 1-(3-chlorophenyl)-N-[3′-fluoro-2-(1H-tetrazol-5-yl)-5′-(trifluoromethyl)biphenyl-4-yl]cyclopropane carboxamide] | 362 nM | –
16 | COc1ccc(-c2ccc(NC(=O)C3(c4ccc(C(F)(F)F)cc4F)CC3)cc2-c2nnn[nH]2)cc1C(F)(F)F [Example 131, 1-[2-fluoro-4-(trifluoromethyl)phenyl]-N-[4′-methoxy-2-(1H-tetrazol-5-yl)-3′-(trifluoromethyl)biphenyl-4-yl]cyclopropane carboxamide] | 53 nM | –
17 | COc1ccc(-c2ccc(NC(=O)C3(c4cccc(Cl)c4)CC3)cc2-c2nnn[nH]2)cc1C(F)(F)F [Example 132, 1-(3-chlorophenyl)-N-[4′-methoxy-2-(1H-tetrazol-5-yl)-3′-(trifluoromethyl)biphenyl-4-yl]cyclopropane carboxamide] | 234 nM | –
18 | COc1cc(-c2ccc(NC(=O)C3(c4ccc(C(F)(F)F)cc4F)CC3)cc2-c2nnn[nH]2)cc(C(F)(F)F)c1 [Example 133, 1-[2-fluoro-4-(trifluoromethyl)phenyl]-N-[3′-methoxy-2-(1H-tetrazol-5-yl)-5′-(trifluoromethyl)biphenyl-4-yl]cyclopropane carboxamide] | 217 nM | –
19 | COc1cc(-c2ccc(NC(=O)C3(c4cccc(Cl)c4)CC3)cc2-c2nnn[nH]2)cc(C(F)(F)F)c1 [Example 134, 1-(3-chlorophenyl)-N-[3′-methoxy-2-(1H-tetrazol-5-yl)-5′-(trifluoromethyl)biphenyl-4-yl]cyclopropane carboxamide] | 572 nM | –
20 | O=C(Nc1ccc(-c2ccc(C(F)(F)F)nc2)c(-c2nnn[nH]2)c1)C1(c2ccc(F)cc2F)CC1 [Example 142, 1-(2,4-difluorophenyl)-N-{3-(1H-tetrazol-5-yl)-4-[6-(trifluoromethyl)pyridin-3-yl]phenyl} cyclopropane-carboxamide] | 201 nM | –
21 | O=C(Nc1ccc(-c2ccc(C(F)(F)F)nc2)c(-c2nnn[nH]2)c1)C1(c2cc(F)c(F)cc2F)CC1 [Example 143, N-{3-(1H-tetrazol-5-yl)-4-[6-(trifluoromethyl)pyridin-3-yl]phenyl}-1-(2,4,5-trifluorophenyl) cyclopropane-carboxamide] | 144 nM | –
22 | O=C(Nc1ccc(-c2ccc(C(F)(F)F)nc2)c(-c2nnn[nH]2)c1)C1(c2ccc(F)cn2)CC1 [Example 145, 1-(5-fluoropyridin-2-yl)-N-{3-(1H-tetrazol-5-yl)-4-[6-(trifluoromethyl)pyridin-3-yl]phenyl} cyclopropane-carboxamide] | 194 nM | –
23 | COc1cc(-c2ccc(NC(=O)C3(c4cccc(Cl)c4)CC3)cc2-c2nnn[nH]2)cnc1C(F)(F)F [Example 146, 1-(3-chlorophenyl)-N-{4-[5-methoxy-6-(trifluoromethyl)pyridin-3-yl]-3-(1H-tetrazol-5-yl)phenyl} cyclopropane-carboxamide] | 100 nM | –
